Target: T1, 5-HT1D -like receptor (Oryctolagus cuniculus, UniProt P49144)
T1 construct: Ring segments of the vein (4-5 mm in length) were cut and the endothelium gently removed; from tissue; host or cells: saphenous vein rings, endothelium removed, male New Zealand White rabbit
Assay: 5-HT1D-like receptor agonist activity: contraction of the rabbit isolated saphenous vein
Parameters: species or system rabbit (New Zealand White)
Details: rabbit isolated saphenous vein rings, endothelium removed, 37° C., pH 7.4; prazosin, idazoxan and indomethacin (1 μM each) present; read-out: EC50 (concentration of the compound which causes 50% of the maximum contraction effected by it)
Procedure: The saphenous veins from both the left and right side were cleaned of fat and connective tissue and placed in Krebs solution (118 mM NaCl, 11 mM glucose, 25 mM NaHCO3, 4.7 mM KCl, 2.5 mM CaCl2.2H2 O, 1.2 mM KH2 PO4, and 1.2 mM MgSO4.7H2 O. Ring segments of the vein (4-5 mm in length) were cut and the endothelium gently removed. The segments were mounted in 10 mL baths containing Krebs buffer and were constantly aerated with 95% oxygen/5% carbon dioxide and maintained at 37° C. and pH 7.4 in order to record the isometric tension. A resting tension of 2.5 g was applied and the tissues allowed to equilibrate for 90 minutes, with washing every 15-20 minutes. After the equilibrium period, the rings were depolarized by the addition of two aliquots of KCl (80 mM final concentration) separated by a 20 minute washing period. The tissues were then exposed to prazosin, idazoxan and indomethacin (all 1 μM final concentration) for 30 minutes in order to exclude the actions of α1 - and α2 -adrenergic receptors and prostaglandin receptors respectively. […] Responses were calculated as a percentage of the maximal contraction evoked by 80 mM KCl. Only one compound was tested per preparation.
EC50 represents the concentration of the compound which causes 50% of the maximum contraction effected by it.

T1 sequence (P49144 whole entry): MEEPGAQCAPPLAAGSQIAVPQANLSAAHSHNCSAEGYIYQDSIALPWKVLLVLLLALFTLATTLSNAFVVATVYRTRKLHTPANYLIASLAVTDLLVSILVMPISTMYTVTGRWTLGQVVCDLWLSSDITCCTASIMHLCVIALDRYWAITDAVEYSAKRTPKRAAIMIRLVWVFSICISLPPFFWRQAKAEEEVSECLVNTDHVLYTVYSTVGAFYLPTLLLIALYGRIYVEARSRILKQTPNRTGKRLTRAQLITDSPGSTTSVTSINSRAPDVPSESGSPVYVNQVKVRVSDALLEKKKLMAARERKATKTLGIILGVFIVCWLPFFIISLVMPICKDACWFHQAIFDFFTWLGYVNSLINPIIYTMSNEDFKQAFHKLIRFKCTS

Structure (SMILES)	EC50 [µM]
Cc1cc(C(C)(C)C)cc(C)c1Cc1ncc[nH]1	0.13
Cc1cc(Br)cc(C)c1Cc1ncc[nH]1	9.3
